In assay [1] the target is T1, GDP loaded biotinylated KRas^G12C protein (Homo sapiens, UniProt P01116, G12C).
T1 construct: biotin (biotinylated); made in house
As to the kind of experiment: KRasG12C mass spectrometry adducting assay. In kind it is binding. Particulars: test compound final concentration 10 μM, 4 μM KRasG12C, react for 4 hours. On the procedure: KRasG12C Mass Spectrometry Adducting Assay
Enzyme solutions were prepared in assay buffer containing 20 mM HEPES (pH 7.5), 5 mM MgCl2, and 150 mM NaCl. […] The plate was sealed before reading on a Xevo G2 QTOF (Waters) and Acquity LC system (Waters). […] Blank samples were run in between each test sample.
Data was analysed in Mass Lynx software (Waters), the Total ion count (TIC) trace was used and the eluted protein peak data combined. Using the combined spectrum the data was deconvoluted using MaxEnt1 method. The peak area for apo-protein KRas^G12C (APO) and KRAS+relative cmpd mass (adduct) were measured, and a percentage adduct was calculated using the following calculation:
Percent adduct=100*(area of adduct peak/(sum of APO+adduct peaks)

The target in assay [2] is T1, GDP loaded biotinylated KRas^G12C protein. In words: KRasG12C functional assay. In kind it is biochemical. The settings on record: HTRF FRET readout of SOS-mediated nucleotide exchange and GST-Raf RBD binding; samples incubated for 4 hrs; read-out: KRasG12C functional assay IC50 value. On the procedure: KRasG12C Functional Assay
All enzyme and substrate solutions were prepared in assay buffer containing 20 mM HEPES (pH 7.5), 5 mM MgCl2, 150 mM NaCl, and 0.01% Tween 20. […] In a separate mix 20 nM GST-Raf Ras binding domain (GST-Raf RBD, purified in house) and 4 μg/ml anti-GST XL665 antibody (Cisbio) was prepared in assay buffer containing 50 mM Potassium Fluoride and 0.05 mg/ml BSA and equilibrated for 4 hours before adding 0.6 μM Guanosine 5′-[γ-thio]triphosphate (GTPγS, Sigma) and 0.08 μM SOS (purified in house). 5 μl of the GST-RAF RBD mix was then dispensed into each well of the assay plate. […] This is detected simultaneously via the specific binding interaction between active GTPγS KRas^G12C with GST-Raf RBD which brings the europium and XL665 into close proximity enabling an increased FRET signal to be detected on a Pherastar (BMG) plate reader equipped with the HTRF filter module. […] IC50 values were calculated from normalised dose-response response FRET data curve fitted in Genedata screener (Basel, Switzerland).
For orientation: TR-FRET usually uses a lanthanide donor and a delayed reading to cut background.

These results are taken from patent US20220127281A1, “HETEROARYL COMPOUNDS THAT INHIBIT G12C MUTANT RAS PROTEINS” (AstraZeneca AB, priority 2017, published 2022).

Each structure is given as a SMILES string.

Usually IC50 stands for the concentration that inhibits the measured activity by half.

T1 sequence (P01116 1-188 isoform P01116-2 G12C): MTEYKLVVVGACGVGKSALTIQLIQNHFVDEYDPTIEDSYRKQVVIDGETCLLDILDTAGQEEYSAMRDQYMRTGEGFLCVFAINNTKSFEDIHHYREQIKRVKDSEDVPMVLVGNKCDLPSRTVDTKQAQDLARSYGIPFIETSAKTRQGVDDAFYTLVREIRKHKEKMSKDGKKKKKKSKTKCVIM

`C=CC(=O)N1CCN2c3ncnc4c(Cl)c(-c5c(C)ccc6[nH]ncc56)cc(c34)OC[C@@H]2C1` [Example 8, 1-[(8aS)-4-Chloro-5-(5-methyl-1H-indazol-4-yl)-8a,9,11,12-tetrahydropyrazino-[2′,1′:3,4][1,4]oxazepino[5,6,7-de]quinazolin-10 (8H)-yl]prop-2-en-1-one]: the “KRasG12C M.S. Binding Mean adduct %” value in assay [1] was 81%. For the same compound, the IC50 in assay [2] is 0.324 µM.
The like results for `C=CC(=O)N1CCN2c3ncnc4cc(-c5c(O)cccc5F)c(Cl)c(c34)OC[C@@H]2C1` [Example 9, 1-[(8aS)-6-Chloro-5-(2-fluoro-6-hydroxyphenyl)-8a,9,11,12-tetrahydropyrazino-[2′,1′:3,4][1,4]oxazepino[5,6,7-de]quinazolin-10 (8H)-yl]prop-2-en-1-one] were, in that order, 100% and 0.124 µM.
The like results for `CN(C)C/C=C/C(=O)N1CCN2c3ncnc4cc(-c5c(O)cccc5F)c(Cl)c(c34)OC[C@@H]2C1` [Example 12, (E)-1-((8aS)-6-Chloro-5-(2-fluoro-6-hydroxyphenyl)-8a,9,11,12-tetrahydropyrazino[2′,1′:3,4][1,4]oxazepino[5,6,7-de]quinazolin-10 (8H)-yl)-4-(dimethylamino)but-2-en-1-one] were, in that order, 76% and 0.381 µM.
Take `C=CC(=O)N1CCN2c3ncnc4cc(-c5cccc6[nH]c(=O)[nH]c56)c(Cl)c(c34)OC[C@@H]2C1` [Example 13, 4-[(8aS)-10-Acryloyl-6-chloro-8,8a,9,10,11,12-hexahydropyrazino[2′,1′:3,4][1,4]-oxazepino[5,6,7-de]quinazolin-5-yl]-1,3-dihydro-2H-benzimidazol-2-one]: in assay [1], the “KRasG12C M.S. Binding Mean adduct %” value was 64%. Moreover, the IC50 in assay [2] came out at 2 µM.
The like results for `C=CC(=O)N1CCN2c3ncnc4cc(-c5c(C)cnc6[nH]ncc56)c(Cl)c(c34)OC[C@@H]2C1` [Example 14, 1-[(8aS)-6-Chloro-5-(5-methyl-1H-pyrazolo[3,4-b]pyridin-4-yl)-8a,9,11,12-tetrahydro-pyrazino[2′,1′:3,4][1,4]oxazepino[5,6,7-de]quinazolin-10 (8H)-yl]prop-2-en-1-one] were, in that order, 53% and 2.54 µM.
As to `C=CC(=O)N1CCN2c3ncnc4cc(-c5ccc6oc(N)nc6c5)c(Cl)c(c34)OC[C@@H]2C1` [Example 21, 1-[(8aS)-5-(2-Amino-1,3-benzoxazol-5-yl)-6-chloro-8a,9,11,12-tetrahydropyrazino[2′,1′:3,4][1,4]-oxazepino[5,6,7-de]quinazolin-10(8H)-yl]prop-2-en-1-one], the “KRasG12C M.S. Binding Mean adduct %” value in assay [1] amounted to 20%. In assay [2], the IC50 amounted to 7.18 µM.
The like results for `C=CC(=O)N1CCN2c3ncnc4cc(-c5cccc6c5oc(=O)n6C)c(Cl)c(c34)OC[C@@H]2C1` [Example 22, 7-[(8aS)-10-Acryloyl-6-chloro-8,8a,9,10,11,12-hexahydropyrazino[2′,1′:3,4][1,4]oxazepino[5,6,7-de]quinazolin-5-yl]-3-methyl-1,3-benzoxazol-2(3H)-one] were, in that order, 34% and 1.77 µM.
For the compound `C=CC(=O)N1CCN2c3ncnc4cc(-c5cccc(NC(C)=O)c5)c(Cl)c(c34)OC[C@@H]2C1` [Example 23, N-{3-[(8aS)-10-Acryloyl-6-chloro-8,8a,9,10,11,12-hexahydropyrazino[2′,1′:3,4][1,4]oxazepino[5,6,7-de]quinazolin-5-yl]phenyl}acetamide], the “KRasG12C M.S. Binding Mean adduct %” value in assay [1] is 20%. In assay [2], the IC50 turned out to be 8.84 µM.
For the compound `C=CC(=O)N1CCN2c3ncnc4cc(-c5cccc6c5OCCOC6)c(Cl)c(c34)OC[C@@H]2C1` [Example 24, 1-[(8aS)-6-Chloro-5-(2,3-dihydro-5H-1,4-benzodioxepin-9-yl)-8a,9,11,12-tetrahydropyrazino[2′,1′:3,4][1,4]oxazepino[5,6,7-de]quinazolin-10(8H)-yl]prop-2-en-1-one], the “KRasG12C M.S. Binding Mean adduct %” value in assay [1] is reported as 27%. Also, the half-inhibitory concentration (IC50) in assay [2] is 4.41 µM.
The like results for `C=CC(=O)N1CCN2c3ncnc4cc(-c5c(F)cccc5OC)c(Cl)c(c34)OC[C@@H]2C1` [Example 25, 1-[(8aS)-6-Chloro-5-(2-fluoro-6-methoxyphenyl)-8a,9,11,12-tetrahydropyrazino[2′,1′:3,4][1,4]oxazepino[5,6,7-de]quinazolin-10(8H)-yl]prop-2-en-1-one] were, in that order, 89% and 0.616 µM.
The like results for `C=CC(=O)N1CCN2c3ncnc4cc(-c5cccc(F)c5OC)c(Cl)c(c34)OC[C@@H]2C1` [Example 26, 1-[(8aS)-6-Chloro-5-(3-fluoro-2-methoxyphenyl)-8a,9,11,12-tetrahydropyrazino[2′,1′:3,4][1,4]oxazepino[5,6,7-de]quinazolin-10(8H)-yl]prop-2-en-1-one] were, in that order, 71% and 2.06 µM.
The like results for `C=CC(=O)N1CCN2c3ncnc4cc(-c5cccc(OC)c5O)c(Cl)c(c34)OC[C@@H]2C1` [Example 27, 1-[(8aS)-6-Chloro-5-(2-hydroxy-3-methoxyphenyl)-8a,9,11,12-tetrahydropyrazino[2′,1′:3,4][1,4]oxazepino[5,6,7-de]quinazolin-10(8H)-yl]prop-2-en-1-one] were, in that order, 73% and 3.03 µM.
For `C=CC(=O)N1CCN2c3ncnc4cc(-c5cccc6c5CCCOC6)c(Cl)c(c34)OC[C@@H]2C1` [Example 28, 1-[(8aS)-6-Chloro-5-(1,3,4,5-tetrahydro-2-benzoxepin-6-yl)-8a,9,11,12-tetrahydropyrazino[2′,1′:3,4][1,4]oxazepino[5,6,7-de]quinazolin-10(8H)-yl]prop-2-en-1-one], the “KRasG12C M.S. Binding Mean adduct %” value in assay [1] came out at 26%. Further, the 50% inhibitory concentration (IC50) in assay [2] was found to be 9.93 µM.
For the compound `C=CC(=O)N1CCN2c3ncnc4cc(-c5ccccc5S(C)(=O)=O)c(Cl)c(c34)OC[C@@H]2C1` [Example 29, 1-[(8aS)-6-Chloro-5-[2-(methylsulfonyl)phenyl]-8a,9,11,12-tetrahydropyrazino[2′,1′:3,4][1,4]oxazepino[5,6,7-de]quinazolin-10(8H)-yl]prop-2-en-1-one], in assay [1], the “KRasG12C M.S. Binding Mean adduct %” value is recorded as 45%. Moreover, in assay [2], the IC50 worked out at 5.02 µM.
The like results for `C=CC(=O)N1CCN2c3ncnc4cc(-c5ccccc5C(=O)NC)c(Cl)c(c34)OC[C@@H]2C1` [Example 30, 2-[(8aS)-10-Acryloyl-6-chloro-8,8a,9,10,11,12-hexahydropyrazino[2′,1′:3,4][1,4]oxazepino[5,6,7-de]quinazolin-5-yl]-N-methylbenzamide] were, in that order, 22% and 9.41 µM.
The like results for `C=CC(=O)N1CCN2c3ncnc4cc(-c5cccc(S(N)(=O)=O)c5)c(Cl)c(c34)OC[C@@H]2C1` [Example 31, 3-[(8aS)-10-Acryloyl-6-chloro-8,8a,9,10,11,12-hexahydropyrazino[2′,1′:3,4][1,4]oxazepino[5,6,7-de]quinazolin-5-yl]benzenesulfonamide] were, in that order, 14% and 6.97 µM.
Turning to `C=CC(=O)N1CCN2c3ncnc4cc(-c5cccc6nccnc56)c(Cl)c(c34)OC[C@@H]2C1` [Example 32, 1-[(8aS)-6-Chloro-5-(quinoxalin-5-yl)-8a,9,11,12-tetrahydropyrazino[2′,1′:3,4][1,4]oxazepino[5,6,7-de]quinazolin-10(8H)-yl]prop-2-en-1-one], the “KRasG12C M.S. Binding Mean adduct %” value in assay [1] is listed as 33%. Further, the IC50 in assay [2] turned out to be 8.32 µM.
With `C=CC(=O)N1CCN2c3ncnc4cc(-c5cccc(NC(=O)OC)c5)c(Cl)c(c34)OC[C@@H]2C1` [Example 33, Methyl {3-[(8aS)-10-Acryloyl-6-chloro-8,8a,9,10,11,12-hexahydropyrazino[2′,1′:3,4][1,4]oxazepino[5,6,7-de]quinazolin-5-yl]phenyl}carbamate], in assay [1], the “KRasG12C M.S. Binding Mean adduct %” value is on record as 24%. Moreover, the half-inhibitory concentration (IC50) in assay [2] is 6.91 µM.
Turning to `C=CC(=O)N1CCN2c3ncnc4cc(-c5cccc6c5CN(C)CC6)c(Cl)c(c34)OC[C@@H]2C1` [Example 34, 1-[(8aS)-6-Chloro-5-(2-methyl-1,2,3,4-tetrahydroisoquinolin-8-yl)-8a,9,11,12-tetrahydropyrazino[2′,1′:3,4][1,4]oxazepino[5,6,7-de]quinazolin-10(8H)-yl]prop-2-en-1-one], the “KRasG12C M.S. Binding Mean adduct %” value in assay [1] came to 8%. The half-maximal inhibitory concentration (IC50) in assay [2] came to 3.47 µM.
Consider `C=CC(=O)N1CCN2c3ncnc4cc(-c5ccccc5OC(F)(F)F)c(Cl)c(c34)OC[C@@H]2C1` [Example 35, 1-[(8aS)-6-Chloro-5-[2-(trifluoromethoxy)phenyl]-8a,9,11,12-tetrahydropyrazino[2′,1′:3,4][1,4]oxazepino[5,6,7-de]quinazolin-10(8H)-yl]prop-2-en-1-one], for which the “KRasG12C M.S. Binding Mean adduct %” value in assay [1] is listed as 87%. The half-inhibitory concentration (IC50) in assay [2] was 1.48 µM.
